Experimental data: patent US20030100550A1, “Carboxamide diazepin derivatives, preparation method, use as medicines, pharmaceutical compositions and use thereof” (priority 2002, published 2003)

Legend:
Type in all cases: biochemical
[1] = molecular target: T1, Cathepsin K (Homo sapiens, UniProt P43235); test: Study of Cathepsin K inhibition (fluorescence, Z-Val-arg-AMC); settings: for IC50: substrate Z-Val-arg-AMC 20 μM, enzyme 5 ng/ml, 2H at ambient temperature, read-out: Cathepsin K IC50
T1 sequence (P43235 115-329): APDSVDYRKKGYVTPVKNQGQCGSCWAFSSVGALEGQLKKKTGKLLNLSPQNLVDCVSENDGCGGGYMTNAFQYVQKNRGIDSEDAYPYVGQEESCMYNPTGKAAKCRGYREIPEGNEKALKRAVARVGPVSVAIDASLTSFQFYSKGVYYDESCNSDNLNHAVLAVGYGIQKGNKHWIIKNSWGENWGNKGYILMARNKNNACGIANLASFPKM
Protocol: Study of Cathepsin K Inhibition:
(§1) The products to be tested (10 mM) are diluted to […] in DMSO and distributed into Nunc polystyrene 96 well plates at a rate of 2 μl per well. Column 12 of the plate is reserved for the controls and therefore receives […] of DMSO (without products) per well. The plates are stored at −80° C. and thawed on the day of the experiment.
(§2) The products are diluted to 50 μM by adding 38 μl of reaction buffer: sodium acetate 100 mM, EDTA 5 mM, DTT […] pH 5.5. The addition as well as all the operations by pipette are carried out with a CybiWell 96 tip pipette. After mixing the solutions, each product is transferred into 2 wells (duplicates) of a Greiner black 384 well plate at a rate of 10 μl per well. Two 96-well plates can therefore be tested in a 384-well plate.
(§3) A solution of substrate at 50 μM, Z-Val-arg-AMC (Calbiochem), is prepared in the reaction buffer. The substrate, is then distributed into all the wells of the 384-well plate (20 μl per well).
(§4) A solution of Cathepsin K at 12.5 ng/ml is prepared in the reaction buffer and distributed into all the wells of the 384-well plate (20 μl per well) except for the 16 wells serving as 100% inhibition controls (column 23 and 24, lines I to P) which receive 20 μl of enzyme-free buffer.
(§5) The plates are then incubated 2H at ambient temperature, then read on Fluoroskan (Labsystems): excitation 390 nm; emission 460 nm
(§6) The final concentrations of each of the reagents are: products 10 μM, substrate 20 μM, enzyme 5 ng/ml.
(§7) The % inhibition for each of the products is calculated by using points at 0 and 100% inhibition of each plate as references. The products presenting a significant inhibition are then retested on a range of concentrations from 50 to 0.5 μM to determine an IC50.

[2] = molecular target: T2, Papain (Carica papaya, UniProt P00784); test: Study of Papain inhibition (fluorescence); settings: enzyme 20 ng/ml, 30 minutes at ambient temperature
T2 construct: purchased Sigma
T2 sequence (P00784 134-345): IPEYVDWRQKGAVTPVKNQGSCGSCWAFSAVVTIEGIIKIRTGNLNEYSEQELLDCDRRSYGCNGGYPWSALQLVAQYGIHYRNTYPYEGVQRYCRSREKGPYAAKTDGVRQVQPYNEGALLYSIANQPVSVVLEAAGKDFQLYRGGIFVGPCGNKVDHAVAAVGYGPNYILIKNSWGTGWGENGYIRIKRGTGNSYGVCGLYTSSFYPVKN
Protocol: as §1, §2, §3, §4, §5, §6, §7
Study of Papain Inhibition:
(§8) Protocol identical to that of Cathepsin K except for:
Papain (Sigma), solution at 50 ng/ml, final concentration 20 ng/ml
Incubation for 30 minutes at ambient temperature

[3] = molecular target: T3, Cathepsin B (Homo sapiens, UniProt P07858); test: Study of Cathepsin B inhibition (fluorescence, Z-arg-arg-AMC)
T3 construct: purchased Calbiochem
Protocol: as §1, §2, §3, §4, §5, §6, §7
Study of Cathepsin B Inhibition:
as §8
Z-arg-arg-AMC substrate (Calbiochem), solution at 50 μM, final concentration 20 μM
Cathepsin B (Calbiochem), solution at 40 ng/ml, final concentration 16 ng/ml
Incubation for 1 hour at ambient temperature

[4] = printed beside 20 μM, meaning not explained

IC50 ([3]; substrate Z-arg-arg-AMC 20 μM, enzyme 16 ng/ml, 1 hour at ambient temperature) [µM] | Cathepsin B, percentage in parentheses beside IC50 value (% inhibition) [3, 4] [%] | Compound | IC50 [1] [µM] | IC50 [2] [µM] | Cathepsin K, percentage in parentheses beside IC50 value (% inhibition) [1, 4] [%]
– | – | C=CCOC(=O)CC[C@H](NC(=O)[C@@H]1CCCN2C(=O)CC[C@H](NC(=O)Nc3ccc(Oc4ccccc4)cc3)C(=O)N12)C(=O)CSc1nnnn1-c1ccccc1 [Example 128, (2-propenyl)(4S)6-[(1-phenyl-1H-tetrazol-5-yl)thio]-4-[[[(1S,9S)-9-[[[(4-phenoxyphenyl)amino]carbonyl]amino]-octahydro-6,10-dioxo-6H-pyridazino[1,2-a][1,2]diazepine-1-yl]carbonyl]amino]-5-oxo-hexanoate] | 20 | 6 | –
– | – | C=CCOC(=O)CC[C@H](NC(=O)[C@@H]1CCCN2C(=O)CC[C@H](NC(=O)Nc3ccc(Oc4ccccc4)cc3)C(=O)N12)C(=O)CSc1nc2ccccc2s1 [Example 129, (2-propenyl)(4S)6-[(benzothiazol-2-yl)thio]-4-[[[(1S,9S)-9-[[[(4-phenoxyphenyl)amino]carbonyl]amino]-octahydro-6,10-dioxo-6H-pyridazino[1,2-a][1,2]diazepine-1-yl]carbonyl]amino]-5-oxo-hexanoate] | – | 4 | –
– | – | C=CCOC(=O)CC[C@H](NC(=O)[C@@H]1CCCN2C(=O)CC[C@H](NC(=O)Nc3ccc(Oc4ccccc4)cc3)C(=O)N12)C(=O)CSCc1ccc(OC)cc1 [Example 130, (2-propenyl)(4S)6-[[(4-methoxyphenyl)methyl]thio]-4-[[[(1S,9S)-9-[[[(4-phenoxyphenyl)amino]carbonyl]amino]-octahydro-6,10-dioxo-6H-pyridazino[1,2-a][1,2]diazepine-1-yl]carbonyl]amino]-5-oxo-hexanoate] | 20 | 6 | –
– | – | C=CCOC(=O)CC[C@H](NC(=O)[C@@H]1CCCN2C(=O)CC[C@H](NC(=O)Nc3ccc(Oc4ccccc4)cc3)C(=O)N12)C(=O)COC(=O)c1ccncc1 [Example 131, (2-propenyl)(4S)6-[[(4-pyridinyl)carbonyl]oxy]-4-[[[(1S,9S)-9-[[[(4-phenoxyphenyl)amino]carbonyl]amino]-octahydro-6,10-dioxo-6H-pyridazino[1,2-a][1,2]diazepine-1-yl]carbonyl]amino]-5-oxo-hexanoate] | 7 | 9 | –
– | – | C=CCOC(=O)CC[C@H](NC(=O)[C@@H]1CCCN2C(=O)CC[C@H](NC(=O)Nc3ccc(Oc4ccccc4)cc3)C(=O)N12)C(=O)COC(=O)Cc1ccsc1 [Example 134, (2-propenyl)(4S)6-[1-oxo-2-(thien-3-yl)ethoxy]-4-[[[(1S,9S)-9-[[[(4-phenoxyphenyl)amino]carbonyl]amino]-octahydro-6,10-dioxo-6H-pyridazino[1,2-a][1,2]diazepine-1-yl]carbonyl]amino]-5-oxo-hexanoate] | 20 | 7 | –
– | – | [N-]=[N+]=CC(=O)[C@H](Cc1ccccc1)NC(=O)[C@@H]1CCCN2C(=O)CC[C@H](NS(=O)(=O)c3ccc(-c4ccon4)s3)C(=O)N12 [Example 166, 9-[(9S)-[[5-(isoxazol-3-yl)-2-thienyl]sulphonyl]amino]-N-((2S)-4-diazo-1-phenyl-3-oxo-2-butyl)-octahydro-6,10-dioxo-6H-(1S)-pyridazino[1,2-a][1,2]diazepine-1-carboxamide] | 20 | 2 | –
– | – | O=C(Nc1ccc(Oc2ccccc2)cc1)N[C@H]1CCC(=O)N2CCC[C@@H](C(=O)N[C@@H](Cc3ccccc3)C(=O)CSc3nnnn3-c3ccccc3)N2C1=O [Example 211, 9-[(9S)-[[(4-phenoxyphenyl)amino]carbonyl]amino]-N-[(2S)-1-phenyl-4-[(1-phenyl-1H-tetrazol-5-yl)thio]-3-oxo-2-butyl]-octahydro-6,10-dioxo-6H-(1S)-pyridazino[1,2-a][1,2]diazepine-1-carboxamide] | 20 | 6 | –
– | – | O=C(Nc1ccc(Oc2ccccc2)cc1)N[C@H]1CCC(=O)N2CCC[C@@H](C(=O)N[C@@H](Cc3ccccc3)C(=O)COC(=O)Cc3ccsc3)N2C1=O [Example 216, 9-[(9S)-[[(4-phenoxyphenyl)amino]carbonyl]amino]-N-[(2S)-1-phenyl-4-[1-oxo-2-(3-thienyl)ethoxy]-3-oxo-2-butyl]-octahydro-6,10-dioxo-6H-(1S)-pyridazino[1,2-a][1,2]diazepine-1-carboxamide] | – | 6 | –
– | – | COC(=O)CCCC(=O)OCC(=O)[C@H](Cc1ccccc1)NC(=O)[C@@H]1CCCN2C(=O)CC[C@H](NC(=O)Nc3ccc(Oc4ccccc4)cc3)C(=O)N12 [Example 217] | 20 | 7 | 30
– | – | O=C(NCCc1cccs1)N[C@H]1CCC(=O)N2CCC[C@@H](C(=O)N[C@@H](Cc3ccccc3)C(=O)CSc3nnnn3-c3ccccc3)N2C1=O [Example 220, 9-[(9S)-[[[2-(thien-2-yl)-ethyl]amino]carbonyl]amino]-N-[(2S)-1-phenyl-4-[(1-phenyl-1H-tetrazol-5-yl)thio]-3-oxo-2-butyl]-octahydro-6,10-dioxo-6H-(1S)-pyridazino [1,2-a][1,2]diazepine-1-carboxamide] | 20 | 6 | –
– | – | O=C(NCCc1cccs1)N[C@H]1CCC(=O)N2CCC[C@@H](C(=O)N[C@@H](Cc3ccccc3)C(=O)CSc3nc4ccccc4s3)N2C1=O [Example 221, 9-[(9S)-[[[2-(thien-2-yl)-ethyl]amino]carbonyl]amino]-N-[(2S)-1-phenyl-4-[(2-benzothiazolyl)thio]-3-oxo-2-butyl]-octahydro-6,10-dioxo-6H-(1S)-pyridazino[1,2-a][1,2]diazepine-1-carboxamide] | 20 | 7 | –
– | – | O=C(CSc1nc2ccccc2s1)[C@H](Cc1ccccc1)NC(=O)[C@@H]1CCCN2C(=O)CC[C@H](NS(=O)(=O)c3ccc(C(F)(F)F)cc3)C(=O)N12 [Example 241, 9-[(9S)-[[[4-(trifluoromethyl)phenyl]sulphonyl]amino]-N-[(2S)-1-phenyl-4-(2-benzothiazolyl)thio]-3-oxo-2-butyl]-octahydro-6,10-dioxo-6H-(1S)-pyridazino[1,2-a][1,2]diazepine-1-carboxamide] | – | 7 | –
– | – | COc1cccc(C(=O)N[C@H]2CCC(=O)N3CCC[C@@H](C(=O)N[C@H](C(=O)CSc4nc5ccccc5s4)C(C)C)N3C2=O)c1 [Example 366, 9-[(9S)-(3-methoxybenzoyl)amino]-N-[(3S)-1-[(benzothiazol-2-yl)thio]-4-methyl-2-oxo-3-pentyl]-octahydro-6,10-dioxo-6H-(1S)-pyridazino[1,2-a][1,2]diazepine-1-carboxamide] | – | 17 | –
– | – | CC(C)[C@H](NC(=O)[C@@H]1CCCN2C(=O)CC[C@H](NC(=O)NCCc3cccs3)C(=O)N12)C(=O)CSc1nc2ccccc2s1 [Example 398, 9-[(9S)-[[[2-(thien-2-yl)-ethyl]amino]carbonyl]amino]-N-[(3S)-1-[(benzothiazol-2-yl)thio]-4-methyl-2-oxo-3-pentyl]-octahydro-6,10-dioxo-6H-(1S)-pyridazino[1,2-a][1,2]diazepine-1-carboxamide] | – | 9 | –
1.5 | – | C[C@H](NC(=O)[C@@H]1CCCN2C(=O)CC[C@H](NC(=O)NCCc3cccs3)C(=O)N12)C(=O)COC(=O)c1c(Cl)cccc1Cl [Example 473, 9-[(9S)-[[[2-(thien-2-yl)-ethyl]amino]carbonyl]amino]-N-[(2S)-4-[(2,6-dichlorobenzoyl)oxy]-3-oxo-2-butyl]-octahydro-6,10-dioxo-6H-(1S)-pyridazino[1,2-a][1,2]diazepine-1-carboxamide] | 20 | – | –
– | 40 | (2-propenyl)(4S)6-diazo-4-[[[(1S,9S)-9-[[[[2-(p-2-yl)-ethyl]amino]carbonyl]amino]-octahydro-6,10-dioxo-6H-pyridazino[1,2-a][1,2]diazepine-1-yl]carbonyl]amino]-5-oxo-hexanoate [Example 44] | 2 | – | –
